Measured values published in patent US20250297116A1, “PRECURSOR COMPOUNDS FOR MOLECULAR COATINGS” (Apeel Technology, Inc., priority 2015, published 2025).

Tests used:
[1] = system: edible substrates (blueberries, bananas, strawberries, lemons, avocados, and limes); experiment: Coating studies on edible substrates: mass loss over time and visible residues; conditions: coated edible substrates
Procedure: For these studies, mixtures (which were typically solid but in some cases were oils) comprising compounds of Formula I and/or compounds of Formula II and/or other additives (e.g., 1-monoacylglycerides, fatty acids, esters, amides, amines, thiols, carboxylic acids, ethers, aliphatic waxes, alcohols, salts (inorganic and organic), or combinations thereof) were first formed. The mixtures were then dissolved in a solvent (e.g., either ethanol or a water and ethanol mixture, for instance in a 1:2 water:ethanol ratio or lower) to form a solution, from which coatings were formed over a variety of edible substrates (blueberries, bananas, strawberries, lemons, avocados, and limes). Details about the specific formulations used and procedures for the forming of the coatings are described below for illustrative purposes with reference to FIGS. 2-18. The substrates were then examined for the presence of visible residues on the surface and tested for percent mass loss over time, and were compared to control samples without the coatings. A variety of different compositions of mixtures (e.g., solid mixtures) were used to form coatings on a variety of edible substrates, where the specific compositions and coating procedures are described below with reference to FIGS. 2-18. Some of the compositions were substantially pure (e.g., at least 90% or at least 95% pure) 2-monoacylglyceride compounds (e.g., compounds of Formula I). For example, coatings were formed from compositions that were substantially pure PA-2G, as well as from compositions that were substantially pure SA-2G. Some of the compositions were substantially pure (e.g., at least 90% or at least 95% pure) 1-monoacylglyceride compounds (e.g., compounds of Formula II). For example, coatings were formed from compositions that were substantially pure PA-1G, compositions that were substantially pure OA-1G, and compositions that were substantially pure SA-1G. Some of the compositions included a compound of Formula I and an additive, where for each of these compositions various ratios of the compound of Formula I to the additive were tested. For example, coatings were formed from compositions which included the combinations of a compound of Formula I and an additive as listed in Table 1 below. Additives included, for example, a saturated or unsaturated compound of Formula II, a saturated or unsaturated fatty acid, an ethyl ester, and/or a second compound of Formula I which is different from the (first) compound of Formula I (e.g., has a different length carbon chain).

finger limes = experiment: Average daily mass loss rate and residues of coated finger limes; conditions: bag coated, 10 mg/mL in ethanol, over several days, 24 finger limes per group, 23-27°C, 40-55% humidity
Procedure: FIGS. 2-18 illustrate the effects of coating a variety of edible substrates with the compositions described herein. To form the coatings, solid mixtures of the compositions were first fully dissolved in ethanol at a concentration of 10 mg/mL (except where a different concentration is specified) to form a solution. The solution was then applied to the substrate either by spraying or dip coating, as detailed for each of the substrates below. The substrates were then dried on drying racks under ambient conditions (temperature in the range of 23° C.-27° C., humidity in the range of 40%-55%) until all of the solvent had evaporated, allowing the coatings to form over the substrates. […] For all mixtures described, PA was purchased from Sigma Aldrich, PA-1G was purchased from Tokyo Chemical Industry Co, PA-2G was prepared following the method of Example 1 above, SA was purchased from Sigma Aldrich, SA-1G was purchased from Alfa Aesar, SA-2G was prepared following the method of Example 3 above, MA was purchased from Sigma Aldrich, MA-1G was purchased from Tokyo Chemical Industry Co, OA was purchased from Sigma Aldrich, and EtPA was purchased from Sigma Aldrich.
FIG. 11 is a graph showing average daily mass loss rates for finger limes coated with various mixtures of PA-2G (compound of Formula I) and PA-1G (additive) measured over the course of several days. […]

CCCCCCCC/C=C\CCCCCCCC(=O)OCC(O)CO (centres unmarked) [OA-1G, 2,3-dihydroxypropan-1-yl (9Z)-Octadecenoate] was tested. Which “reduction in mass loss versus uncoated control samples” value [1] did it give?
Its value is “at most a nominal reduction in mass loss”.

How did the “average daily mass loss rate” value (finger limes) turn out when CCCCCCCCCCCCCCCC(=O)OC(CO)CO [PA-2G, 1,3-dihydroxypropan-2-yl palmitate] was run?
The value was “under 4 % per day”.

What about the “reduction in mass loss versus uncoated control samples” value [1] of the same compound?
The value was “at most a nominal reduction in mass loss”.

How did the “average daily mass loss rate” value (finger limes) turn out when CCCCCCCCCCCCCCCC(=O)OCC(O)CO (centres unmarked) [PA-1G, 2,3-dihydroxypropan-1-yl palmitate] was run?
The value was “over 4 % per day”.

And the “reduction in mass loss versus uncoated control samples” value [1]?
The value was “at most a nominal reduction in mass loss”.

CCCCCCCCCCCCCCCCCC(=O)OCC(O)CO (centres unmarked) [SA-1G, 2,3-dihydroxypropan-1-yl octadecanoate] was tested. Which “reduction in mass loss versus uncoated control samples” value [1] did it give?
Its value is “at most a nominal reduction in mass loss”.

For CCCCCCCCCCCCCC(=O)OCC(O)CO (centres unmarked) [MA-1G, 2,3-dihydroxypropan-1-yl tetradecanoate], which “reduction in mass loss versus uncoated control samples” value [1] is on record?
Its value is “at most a nominal reduction in mass loss”.

How did the “reduction in mass loss versus uncoated control samples” value [1] turn out when CCCCCCCCCCCCCCCCCC(=O)OC(CO)CO [SA-2G, 1,3-dihydroxypropan-2-yl octadecanoate] was run?
The value was “at most a nominal reduction in mass loss”.
